The values below come from patent publication EP4389746A2, “P2X3 RECEPTOR ANTAGONISTS” (Recordati Industria Chimica E Farmaceutica SPA, priority 2022, dated 2024).

SMILES strings stand for the structures.

The target in one assay is T1, human P2X3 receptor (Homo sapiens, UniProt P56373).
T1 construct: expressed in transfected cells; host or cells: CHO-K1
T1 sequence (P56373 1-397): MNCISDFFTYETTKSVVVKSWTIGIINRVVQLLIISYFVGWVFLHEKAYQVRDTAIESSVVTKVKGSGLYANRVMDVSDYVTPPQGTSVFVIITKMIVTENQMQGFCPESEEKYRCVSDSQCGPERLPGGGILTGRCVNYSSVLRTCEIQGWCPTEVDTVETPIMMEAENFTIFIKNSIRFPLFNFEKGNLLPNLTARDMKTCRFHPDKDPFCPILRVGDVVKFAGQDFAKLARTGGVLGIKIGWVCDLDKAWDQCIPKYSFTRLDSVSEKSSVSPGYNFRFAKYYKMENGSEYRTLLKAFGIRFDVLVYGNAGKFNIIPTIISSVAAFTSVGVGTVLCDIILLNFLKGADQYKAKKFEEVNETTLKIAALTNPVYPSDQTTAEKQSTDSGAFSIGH
Kind of assay: Calcium luminescence measurement: human P2X3 receptor activity inhibition (CHO-K1 cells, photoprotein readout, FLEXSTATION). Format: cell-based. To be noted: CHO-K1 cells co-expressing human P2X3 and Ca2+ sensitive photoprotein; agonist α,β-Met-ATP; read-out: h-P2X3 IC50. As for the experimental part: Determination of human P2X3 receptor activity inhibition
The assay for the human purinergic P2RX3 receptor has been adapted to the internal screening instrumentation using the FLEXSTATION as reader and a photoprotein as luminescent readout. The assay consists of CHO-K1 cells recombinantly co-expressing the human P2rx3 receptor and a Ca^2+ sensitive photoprotein. Cells are maintained in DMEM F-12 (1:1) mixture (LONZA cat. n° BE04-687F/U1) supplemented with 9 mL of 100 mM Sodium Pyruvate (LONZA cat. n° BE13-115E), 29 mL of 7.5% Sodium Bicarbonate (LONZA cat. n° BE17-613E), 5.5 mL of 1 M Hepes (LONZA cat. n° BE17-737E), 5 mL of 100X Penicillin/Streptomycin mixture (LONZA cat. n° DE17-602E) and 50 mL of Fetal Bovine Serum (Sigma cat. n° F7524), 1 mg/mL G418 disulfate salt (Sigma cat. n° G8168) and 5 µg/ml Puromycin dihydrochloride (Sigma cat. n° P9620). Standard propagation conditions consist of seeding in a P75 flask twice a week, recovering about 20×10^6 cells, corresponding to about 80% confluency. Cells were seeded into black-walled clear bottom 96 well plates at a density of 40000 cells/well in a complete medium. After 24 h the culture medium was replaced with 200 µL/well of coelenterazine in Tyrode's buffer (Standard Tyrode's buffer: in house solution, 130 mM NaCl, 5 mM KCl, 2 mM CaCl2, 5 mM NaHCO3, 1 mM MgCl2, 20 mM HEPES, pH 7.4). Coelenterazine was purchased from BIOSYNTH (cat. n° C-7001). 10 mM stock solution was prepared in DMSO and glutathione and stored at -20° C. The plates were incubated for 4 hours at 37°C, and injected with 10 µL/well of test compounds at 25X concentration in Tyrode's buffer. After 4 minutes a second injection of 50 µL/well of 5X α,β-Met-ATP in Tyrode's buffer (α,β-Met-ATP: from Tocris (cat. n° 3209), was dissolved at 100 mM in water and stored in aliquots at -20°C) was performed and the signal of the emitted luminescence was recorded by FLEXSTATION III (Molecular Devices). […]
The inhibition curves of the tested compounds at cloned P2X3 receptor were determined by nonlinear regression analysis using software Prism 5.0 (Graphpad, San Diego, CA). The IC50 values and pseudo-Hill slope coefficients were estimated by the program.

For another assay, the target named is T2, human P2X2/3 receptor (Homo sapiens, UniProt P56373+Q9UBL9).
T2 construct: expressed in transfected cells; host or cells: CHO-K1
T2 sequence (P56373 1-397): T1 sequence (P56373 1-397)
T2 sequence (Q9UBL9 1-471): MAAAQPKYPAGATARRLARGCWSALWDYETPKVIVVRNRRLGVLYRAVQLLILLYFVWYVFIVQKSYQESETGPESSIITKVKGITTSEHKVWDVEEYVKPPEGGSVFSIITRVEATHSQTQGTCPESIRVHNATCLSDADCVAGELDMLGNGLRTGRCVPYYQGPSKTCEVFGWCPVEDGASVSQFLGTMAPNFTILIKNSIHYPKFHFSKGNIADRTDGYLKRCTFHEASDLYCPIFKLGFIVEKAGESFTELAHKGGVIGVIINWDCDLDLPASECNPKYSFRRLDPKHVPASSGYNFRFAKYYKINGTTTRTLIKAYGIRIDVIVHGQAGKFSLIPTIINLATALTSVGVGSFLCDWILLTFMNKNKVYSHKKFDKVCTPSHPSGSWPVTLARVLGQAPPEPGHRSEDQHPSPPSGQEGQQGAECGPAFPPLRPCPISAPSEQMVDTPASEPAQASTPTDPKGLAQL
Kind of assay: Calcium fluorescence measurement: human P2X2/3 receptor activity inhibition (CHO-K1 cells, Fluo-8 NoWash, […]). Format: cell-based. The settings on record: for IC50: CHO-K1 cells expressing human P2RX2/X3 channel, 10µM α,β-Met-ATP, read-out: h-P2X2/3 IC50; for Selectivity: ratio of IC50 of P2X2/3/ P2X3 receptors. As for the experimental part:
Determination of human P2X2/3 receptor activity inhibition
The assay for the human P2RX2/X3 has been evaluated by the screening instrumentation using the […] as reader and the FLUO8-NoWash dye as fluorescent readout for calcium detection.
CHO-K1 cells recombinantly expressing the human P2RX2/X3 channel are maintained in DMEM F-12 (1:1) mixture (LONZA cat. n°: BE04-687F/U1) supplemented with 5 mL of 100 mM Sodium Pyruvate (LONZA cat. n° BE13-115E), 25 mL of 7.5% Sodium Bicarbonate (LONZA cat. n° BE17-613E), 6.5 mL of 1M Hepes (LONZA cat. n° BE17-737E), 5 mL of 100X Penicillin/Streptomycin mixture (LONZA cat. n° DE17-602E) and 50 mL of Fetal Bovine Serum (Sigma cat. n° F7524), 5 µg/mL Puromycin dihydrochloride (Sigma cat. n° P9620) and 1 mg/ml G418 disulfate salt (Sigma cat. n° G8168).
Cells were seeded into black-walled clear bottom 384 Multiwell plates at a density of 10.000 cells/well in complete medium. After 24 h the culture medium was replaced with 20 µL/well of Fluo-8 NoWash calcium sensitive dye (AAT Bioquest cat. n° 36316) diluted in Tyrode's buffer (Standard Tyrode's buffer: in house solution, 130 mM NaCl, 5 mM KCl, 2 mM CaCl2, 5 mM NaHCO3, 1 mM MgCl2, 20 mM HEPES, pH 7.4).
The plates were incubated for 1 hours at 37°C and injected with 10 µL/well of test compounds at 3X concentration in Tyrode's buffer with the […]. After 5 minutes a second injection of 15 µL/well of 10µM α,β-Met-ATP in Tyrode's buffer (α,β-Met-ATP: from Tocris cat. n° 3209) was performed and the signal of the emitted fluorescence was recorded by […] (Molecular Devices).
The selectivity is expressed as the ratio of IC50 of P2X2/3/ P2X3 receptors. Table 8: Human P2X3 and h-P2X2/3 receptor antagonist activity for selected compounds of the invention.

`CC(C)(C)c1nnc2c3ncc(N4CCOCC4)cc3n(Cc3ccc(Br)cc3)c(=O)n12` [Example 31, 6-[(4-Bromophenyl)methyl] -3-tert-butyl-8-(morpholin-4-yl)pyrido[2,3-e][1,2,4]triazolo[4,3-c]pyrimidin-5(6H)-one]: the IC50 at human P2X3 receptor came out at 7.2 nM. Moreover, at human P2X2/3 receptor, the IC50 is 8150 nM and the Selectivity is recorded as greater than 1000.

On to `COC(C)(C)c1nnc2c3ncc(N4CCOCC4)cc3n(Cc3ccc(Cl)cc3)c(=O)n12` [Example 32, 6-(4-Chlorobenzyl)-3-(2-methoxypropan-2-yl)-8-(morpholin-4-yl)pyrido[2,3-e][1,2,4]triazolo[4,3-c]pyrimidin-5(6H)-one], for which the IC50 at human P2X3 receptor stood at 21 nM. On human P2X2/3 receptor, the IC50 is greater than 30000 nM and the Selectivity is listed as greater than 1000.

Regarding `COc1ccc(Cn2c(=O)n3c(C(C)(C)C)nnc3c3ncc(N4CCNCC4)cc32)cc1` [Example 35, 3-tert-Butyl-6-[(4-methoxyphenyl)methyl] -8-(piperazin-1-yl)pyrido[2,3-e][1,2,4]triazolo[4,3-c]pyrimidin-5(6H)-one], the IC50 on human P2X3 receptor was determined as 330 nM. In addition, at human P2X2/3 receptor, the IC50 is greater than 30000 nM and the Selectivity is reported as greater than 90.

As for `COc1ccc(Cn2c(=O)n3c(C(C)(C)C)nnc3c3ncc(N4CCN(C(C)=O)CC4)cc32)cc1` [Example 36, 8-(4-Acetylpiperazin-1-yl)-3-tert-butyl-6-[(4-methoxyphenyl)methyl]pyrido[2,3-e][1,2,4]triazolo[4,3-c]pyrimidin-5(6H)-one], the IC50 at human P2X3 receptor came to 136 nM. In addition, at human P2X2/3 receptor, the IC50 is greater than 30000 nM and the Selectivity is greater than 119.

For the molecule `COc1ccc(Cn2c(=O)n3c(C(C)(C)C)nnc3c3ncc(N4CCCCC4)cc32)cc1` [Example 38, 3-tert-Butyl-6-[(4-methoxyphenyl)methyl]-8-(piperidin-1-yl)pyrido[2,3-e][1,2,4]triazolo[4,3-c]pyrimidin-5(6H)-one], the IC50 at human P2X3 receptor was determined as 50.6 nM; on human P2X2/3 receptor it was 19900 nM. Also, the Selectivity on human P2X2/3 receptor is recorded as greater than 392.

Turning to `CC(C)(C)c1nnc2c3ncc(N4CC[C@@H](O)C4)cc3n(Cc3ccc(Cl)cc3)c(=O)n12` [Example 43, 3-tert-Butyl-6-[(4-chlorophenyl)methyl]-8-[(3R)-3-hydroxypyrrolidin-1-yl]pyrido[2,3-e][1,2,4]triazolo[4,3-c]pyrimidin-5(6H)-one], the IC50 on human P2X3 receptor was 67.6 nM; at human P2X2/3 receptor, greater than 30000 nM. The Selectivity at human P2X2/3 receptor is recorded as greater than 444.

In the case of `COC(C)(C)c1nnc2c3nnc(N4CCOCC4)cc3n(Cc3ccc(Cl)cc3)c(=O)n12` [Example 48, 6-[(4-Chlorophenyl)methyl]-3-(2-methoxypropan-2-yl)-8-(morpholin-4-yl)[1,2,4]triazolo[4',3': 1,6]pyrimido[5,4-c]pyridazin-5(6H)-one], the IC50 at human P2X3 receptor worked out at 24.9 nM. For the same molecule, at human P2X2/3 receptor, the IC50 was greater than 30000 nM and the Selectivity was greater than 1000.

For the molecule `CC(C)(C)Cc1nnc2c3nnc(N4CCOCC4)cc3n(Cc3ccc(Cl)cc3)c(=O)n12` [Example 49, 6-[(4-Chlorophenyl)methyl]-3-(2,2-dimethylpropyl)-8-(morpholin-4-yl)[1,2,4]triazolo[4',3':1,6]pyrimido[5,4-c]pyridazin-5(6H)-one], the IC50 was 19.5 nM at human P2X3 receptor and greater than 30000 nM on human P2X2/3 receptor. In addition, the Selectivity on human P2X2/3 receptor was greater than 1500.

`CN(C)c1nnc2c3nnc(N4CCOCC4)cc3n(Cc3ccc(Cl)cc3)c(=O)n12` [Example 50, 6-[(4-Chlorophenyl)methyl] -3 - (dimethylamino)-8-(morpholin-4-yl)[1,2,4]triazolo[4',3': 1,6]pyrimido[5,4-c]pyridazin-5(6H)-one]: the IC50 at human P2X3 receptor was found to be 98.6 nM. Moreover, on human P2X2/3 receptor, the IC50 was greater than 30000 nM and the Selectivity is listed as greater than 304.

For `CC(C)(C)c1nnc2c3nnc(N4CCC(O)CC4)cc3n(Cc3ccc(Cl)cc3)c(=O)n12` [Example 55, 3-tert-Butyl-6-[(4-chlorophenyl)methyl]-8-(4-hydroxypiperidin-1-yl)[1,2,4]triazolo[4',3': 1,6]pyrimido[5,4-c]pyridazin-5(6H)-one], the IC50 on human P2X3 receptor was 25 nM. Besides, on human P2X2/3 receptor, the IC50 is greater than 30000 nM and the Selectivity was greater than 1200.
